Experimental data taken from BindingDB's records for doi:10.1016/s0960-894x(00)00033-0 (Albany Molecular Research, 2000).
“And” between values parts separate entries of the source, which are not always exact repeats. Equal values may be shown once. Where a name gives a salt, the structure may show the parent alone.

How the values were obtained:
[1] = Binding affinity against Opioid receptor delta 1 of calf cortex using […] as radioligand
[2] = Binding affinity against Opioid receptor kappa 1 of calf cortex using [3H]-U-69,593 as radioligand
[3] = as above; remark: listed apart in the source

## COCCC1CC2CN3CCc4c([nH]c5ccccc45)C(C(=O)OC)(C2)C13 (stereo not drawn) [(-)-18-Methoxycoronaridine hydrochloride]
[1]
  Ki: 3.5 µM
[2]
  Ki: 4.8 µM
[3]
  Ki: 5.5 µM and 5.1 µM
